According to paper PMC8667043, “First-in-Class Inhibitors of the Ribosomal Oxygenase MINA53” (Journal of Medicinal Chemistry, 2021):
“Also recorded” adds a separate entry of the source. Read-outs that look alike come from different tables or passages of the source. One block for each compound: values may come before it.

Tests used:
NO66 = target: T1, NO66 (Homo sapiens, UniProt Q9H6W3); assay: NO66 MS (RapidFire) hydroxylation inhibition assay, Rpl8 peptide; format: biochemical
T1 construct: histidine tag (TEV-cleavable) (cleaved yes); made in house; host or cells: E. coli BL21(DE3)-R3-pRARE2
T1 sequence (Q9H6W3 183-641): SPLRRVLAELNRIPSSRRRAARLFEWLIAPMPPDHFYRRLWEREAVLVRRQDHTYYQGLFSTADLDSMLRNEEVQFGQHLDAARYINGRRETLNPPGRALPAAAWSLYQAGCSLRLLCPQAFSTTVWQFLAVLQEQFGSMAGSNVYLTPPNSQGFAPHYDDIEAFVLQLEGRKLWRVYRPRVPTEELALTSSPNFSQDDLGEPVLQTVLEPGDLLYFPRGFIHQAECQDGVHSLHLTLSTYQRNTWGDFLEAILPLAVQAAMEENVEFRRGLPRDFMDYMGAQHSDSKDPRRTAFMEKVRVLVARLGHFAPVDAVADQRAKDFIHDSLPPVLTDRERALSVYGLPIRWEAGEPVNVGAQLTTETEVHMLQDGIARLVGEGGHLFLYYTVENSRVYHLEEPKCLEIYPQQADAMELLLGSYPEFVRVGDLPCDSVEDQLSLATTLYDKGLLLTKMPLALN

MNK-45 gastric carcinoma = assay: MTT cell viability assay; format: cell-based, human; details: 72, 96, 120 h, 10 to 100 μM, 10′ to a similar extent as 10
Protocol: (§1) Human commercially available established cancer cell lines HT-29 colon carcinoma (ATCC, HTB-38), U-87MG glioblastoma (ATCC, HTB-14), and MNK-45 gastric cancer (a gift from Dr. M. Broggini, Mario Negri Institute) were cultured in RPMI medium (Euroclone, Milan, IT) supplemented with 10% inactivated fetal bovine serum (HyClone, Thermo Scientific, South Logan, UT), 1% L-glutamine (Euroclone), and 100 μg/mL penicillin/streptomycin (Euroclone). HEK293T and HeLa cells were cultured in Dulbecco’s Modified Eagle Medium (DMEM, Gibco) supplemented with 10% (v/v) fetal bovine serum (FBS, Sigma) and 100 international units/mL (IU/mL) penicillin and 100 μg/mL streptomycin (Gibco). The cells were routinely tested for mycoplasma contamination and STR-authenticated.
(§2) Twenty-four hours following seeding, exponentially growing cells were treated with the different compounds at concentrations ranging from 10 to 100 μM for 72–120 h. Aqueous DMSO (0.5%, v/v) was used as a control (untreated). Cell viability was determined by the 3-(4,5-dimethylthiazol-2-yl)-2,5-diphenyltetrazolium bromide (MTT) colorimetric assay (Sigma-Aldrich). In summary, exponentially growing cancer cells were seeded in sextuplicate in 96-well culture plates (1.5 × 10^3 cells/well). After 24 h, the compounds were added at concentrations ranging from 10 to 100 μM. The effect of compounds on cancer cell proliferation was assessed by measuring the MTT dye absorbance of the cells as reported.[52] For combination treatments, the cells were treated with each of three compounds, either alone or in combination with doxorubicin. In particular, U-87MG cells were treated with doxorubicin alone or in combination with different MINA53 inhibitors for 24 h. The effect of different compounds or combinations (drug concentration ratio 1:20, doxorubicin: compound) on U-87MG cancer cell viability was assessed by measuring the MTT dye absorbance of cells. The interaction between doxorubicin (Doxo) and different compounds was evaluated based on the combination index (CI) using the CI equation through CalcuSyn software (Biosoft, Cambridge, U.K.). Synergism CI < 0.9, additivity 0.9 < CI < 1.1, antagonism CI > 1.1.

HT-29 colon carcinoma = assay: MTT cell viability assay; format: cell-based, human; details: 72, 96, 120 h, 10 to 100 μM, 10′ to a similar extent as 10
Protocol: as §1, §2

U-87MG malignant glioma = assay: MTT cell viability assay; format: cell-based, human; details: 72, 96, 120 h, 10 to 100 μM, 10′ to a similar extent as 10
Protocol: as §1, §2

MINA53 = target: T2, MINA53 (Homo sapiens, UniProt Q8IUF8); assay: MINA53 MS (RapidFire) hydroxylation inhibition assay, Rpl27a peptide; format: biochemical
T2 construct: MINA53 (Met1-Val464 and Ala26-Val464); histidine tag (TEV-cleavable) (cleaved yes); made in house; host or cells: E. coli BL21(DE3)-R3-pRARE2

p300 = target: T3, p300 (Homo sapiens, UniProt Q09472); assay: HotSpot KAT assay; format: biochemical; details: read-out: Residual Enzymatic Activity (%) p300
T3 construct: purchased Reaction Biology Corporation, Malvern, PA, USA
T3 sequence (Q09472 1284-1673): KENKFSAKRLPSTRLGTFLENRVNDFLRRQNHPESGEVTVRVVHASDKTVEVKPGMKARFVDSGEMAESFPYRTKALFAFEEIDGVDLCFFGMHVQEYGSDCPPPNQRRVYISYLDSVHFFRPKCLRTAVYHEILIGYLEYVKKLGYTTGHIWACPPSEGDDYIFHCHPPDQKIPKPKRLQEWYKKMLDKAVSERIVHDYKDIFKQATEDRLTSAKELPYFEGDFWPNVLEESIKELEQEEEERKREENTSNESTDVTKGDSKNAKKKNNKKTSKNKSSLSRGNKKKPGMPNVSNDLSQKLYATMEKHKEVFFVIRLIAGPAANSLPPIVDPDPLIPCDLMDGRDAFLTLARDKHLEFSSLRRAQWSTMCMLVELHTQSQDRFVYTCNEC
Protocol: (§3) The ef fects of 1-13 on th e histone lysine acetyltr a nsferas e activity (KAT ) o f p300 and PCAF were
(§4) determined using the HotSpot KAT assay ( Reaction Biology Corporation, Malvern, PA, USA)
(§5) according to the supplier’s procedure. In brief, recombinant form s of catal ytic domains of PCAF
(§6) NaCl, 0.1 mM EDTA, 1 mM DTT, 1 mM PMSF, 1% (v/v) DMSO) fo r 1 h at 30 °C in the presenc e
(§7) or absence of various concentrations of the inhibitors. Histone H3 acetyl ation was assessed by
(§8) liquid scintillation counting using a Tri-Carb 2800TR Liquid Scintillation Analyzer
(§9) (PerkinElmer). Assays at fixed con centration doses were performed in triplicate and analyzed
(§10) using Excel and GraphPad Prism 6.0 software (GraphPad Software Inc., San Diego, CA).

PCAF = target: T4, PCAF (Homo sapiens, UniProt Q92831); assay: HotSpot KAT assay; format: biochemical; details: means ± SD of three experiments, read-out: Residual Enzymatic Activity (%) PCAF
T4 construct: purchased Reaction Biology Corporation, Malvern, PA, USA
Protocol: as §3, §4, §5, §6, §7, §8, §9, §10

U-87MG cells = assay: MTT cell viability, alone or in combination with doxorubicin; combination index; format: cell-based, human; details: 24 h
Protocol: as §2

[1] = NO66 (Ser183-Asn641), means ± 95% confidence, n = 3, read-out: IC50 value, NO66 (assay validation, Figure S7)
[2] = Table S12, read-out: NO66 IC50 (Table S12)
[3] = MINA53 (Met1-Val464), means ± 95% confidence, n = 3, read-out: IC50 value, MINA53 (assay validation, Figure S7)

T2 sequence (Q8IUF8 1-464 isoform Q8IUF8-4): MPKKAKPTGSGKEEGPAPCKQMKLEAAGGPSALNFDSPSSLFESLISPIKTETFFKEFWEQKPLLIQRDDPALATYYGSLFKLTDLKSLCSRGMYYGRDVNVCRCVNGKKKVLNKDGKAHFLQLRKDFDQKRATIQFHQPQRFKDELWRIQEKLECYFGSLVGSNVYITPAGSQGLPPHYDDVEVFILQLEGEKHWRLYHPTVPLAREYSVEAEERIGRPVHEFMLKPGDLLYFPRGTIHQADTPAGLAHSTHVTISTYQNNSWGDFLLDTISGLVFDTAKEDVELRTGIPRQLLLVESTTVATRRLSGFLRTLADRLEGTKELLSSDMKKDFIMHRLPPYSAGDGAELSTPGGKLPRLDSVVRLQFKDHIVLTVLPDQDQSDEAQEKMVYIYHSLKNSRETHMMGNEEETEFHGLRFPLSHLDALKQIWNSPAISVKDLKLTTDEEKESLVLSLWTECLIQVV
T4 sequence (Q92831 492-658): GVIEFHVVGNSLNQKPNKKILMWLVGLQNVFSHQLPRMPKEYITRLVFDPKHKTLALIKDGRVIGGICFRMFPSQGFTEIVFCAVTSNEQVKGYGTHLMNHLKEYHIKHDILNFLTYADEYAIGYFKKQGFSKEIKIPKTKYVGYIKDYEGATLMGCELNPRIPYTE

SMILES: O=C(O)c1ccnc(C(=O)O)c1 [2,4-PDCA, pyridine-2,4-dicarboxylate, reference compound]
IC50 (NO66; [1]): 0.11 µM
IC50 (NO66; [2]): 0.168 µM

SMILES: CCCCCCCCCCCCCCCc1cccc(O)c1C(=O)O [Anacardic Acid (AA), reference compound]
remaining activity at 100 µM (p300): 0.9 ± 0.01%
remaining activity at 100 µM (PCAF): 4.7 ± 0.3%

SMILES: O=C(O)CNC(=O)C(=O)O [NOG, N-oxalylglycine, reference compound]
IC50 (MINA53; [3]): 1.8 µM
IC50 (NO66; [1]): 3.5 µM

SMILES: COc1cccc2c1C(=O)c1c(O)c3c(c(O)c1C2=O)C[C@@](O)(C(=O)CO)C[C@@H]3O[C@H]1C[C@H](N)[C@H](O)[C@H](C)O1 [doxorubicin, reference compound]
cell viability, single compound treatment (U-87MG cells): reduced cell viability in a dose-dependent manner

Now from value to compound, other results behind:

IC50 (MINA53; Table S12, read-out: MINA53 IC50 (Table S12)): > 100 µM
IC50 (NO66; [2]): 20.1 µM
SMILES: COC(=O)c1cnc(SCCCc2ccccc2)[nH]c1=O [10′, Methyl 2-((3-phenylpropyl)thio)-3,4-dihydro-4-oxopyrimidine-5-carboxylate]
effect on cell viability, MNK-45 (MNK-45 gastric carcinoma): reduced the cell viability
effect on cell viability, HT-29 (HT-29 colon carcinoma): reduced the cell viability
effect on cell viability, U-87MG (U-87MG malignant glioma): reduced the cell viability

inhibition of NO66 at 100 μM (NO66; at 100 μM): did not show significant inhibition
inhibition at 100 µM (NO66; read-out: inhibition of NO66 at 100 μM): 30%
SMILES: O=C(O)CCNc1cc(N2CCc3ccccc3CC2)nc(-c2ccccn2)n1 [GSK-J1, reference compound]
inhibition of MINA53 at 100 μM (MINA53; at 100 μM): did not show significant inhibition; also recorded: No inhibition

IC50 (MINA53; [3]): 102 µM
IC50 (NO66; [1]): 38.5 µM
SMILES: O=C(O)c1ccc(O)c2ncccc12 [IOX-1, reference compound]
